Each structure is given as a SMILES string.

Format in all cases: in vivo
The test system of test [1] is corn. Put plainly: Pre-emergence safener action in corn with the herbicide isoxaflutol. The settings on record: greenhouse, visual scoring after 3 to 4 weeks. The source says:
(§1) The damage to the plants is scored visually using a scale of 0-100%, in comparison to control plants:
(§2) 0%=no noticeable effect compared to the untreated plant
(§3) 100%=the treated plants dies.
Seeds or rhizome pieces of monocotyledonous and dicotyledonous weed plants and crop plants were placed in sandy loam soil in plastic pots and covered with soil. The herbicide/safener active compound combinations according to the invention, formulated as suspension emulsion concentrates, and in parallel tests the individual active compounds formulated in a corresponding manner, were then, at various dosages at a water application rate of 600 to 800 l/ha (converted), applied to the surface of the covering soil.
After the treatment, the pots were placed in the greenhouse and kept under good growth conditions for the weeds and the crop plants. Visual scoring of the plant damage or emergence damage was carried out after the test plants had emerged after a test period of 3 to 4 weeks, in comparison to untreated controls.

The test system of test [2] is corn. The test can be described thus: Post-emergence safener action in corn with the herbicide tembotrione. The settings on record: greenhouse, visual scoring of damage.
Description: as §1, §2, §3
(§4) Seeds or rhizome pieces of monocotyledonous and dicotyledonous harmful plants and crop plants are placed in sandy loam soil in plastic pots, covered with soil and cultivated in the greenhouse under good growth conditions. Alternatively, harmful plants encountered in paddy rice cultivation are cultivated in pots in which the surface of the soil is covered by up to 2 cm of water. Three weeks after sowing, the test plants are treated at the three-leaf stage. The herbicide/safener active compound combinations according to the invention, formulated as emulsion concentrates, and in parallel tests the individual active compounds formulated in a corresponding manner, are sprayed at various dosages at a water application rate of […] (converted) onto the green parts of the plants, and, after the test plants were left to stand in the greenhouse for about 2 to 3 weeks under optimum growth conditions, the effect of the preparations is scored visually in comparison to untreated controls. In the case of rice or harmful plants encountered in the cultivation of rice, the active compounds are also added directly to the irrigation water (application analogously to the so-called granule application) or sprayed onto the plants and into the irrigation water. […]

The next test has as its system barley. The test can be described thus: Post-emergence safener action in barley with the herbicide mesosulfuron-methyl. The settings on record: greenhouse, visual scoring of damage.
Description: as §1, §2, §3, §4

For the compound `CC(C)NC(=O)c1ccc(C(F)F)[nH]c1=O` [Compound 232, 6-Difluoromethyl-N-isopropyl-2-oxo-1,2-dihydropyridine-3-carboxamide], the “safener action in combination with the herbicide isoxaflutol” value (shortened to “safener action in combination”) with corn [1] is “good safener action”.
Same read-out and setting: with `O=C(c1ccc(C(F)(F)Cl)[nH]c1=O)N1CCCC1` [Compound 217] the entry was “good safener action”.
Turning to `CC(C)(C)NC(=O)c1ccc(C(F)(F)Cl)[nH]c1=O` [Compound 122], in the test on corn [1], the “safener action in combination” value is on record as “good safener action”.
Turning to `COC(=O)CN(C)C(=O)c1ccc(C(F)(F)F)[nH]c1=O` [Compound 72], the “safener action in combination” value with corn [1] was “good safener action”.
Still for that read-out and setting: with `O=C(NC1CCCCC1)c1ccc(C(F)(F)F)[nH]c1=O` [Compound 19] the entry was “good safener action”.
As to `NC(=O)c1ccc(C(F)(F)C(F)(F)F)[nH]c1=O` [Compound 341, 2-Oxo-6-(pentafluoroethyl)-1,2-dihydropyridine-3-carboxamide], the “safener action for the herbicide tembotrione” value in the test with corn [2] is “good safener action”. For the same compound, the “safener action in combination” value with corn [1] was “good safener action”. Also, the “safener action for the herbicide mesosulfuron-methyl” value in the test with barley was “good safener action”.
As to `C#CCNC(=O)c1ccc(C(F)(F)C(F)(F)F)[nH]c1=O` [Compound 380], the “safener action in combination” value in the test on corn [1] is “good safener action”.
As to `CCC(C)NC(=O)c1ccc(C(F)(F)C(F)(F)C(F)(F)F)[nH]c1=O` (stereo not drawn) [Compound 1636], the “safener action for the herbicide tembotrione” value in the test on corn [2] is on record as “good safener action”. Further, in the test on corn [1], the “safener action in combination” value is “good safener action”. Besides, the “safener action for the herbicide mesosulfuron-methyl” value with barley is given as “good safener action”.
For the compound `CNC(=O)c1ccc(C(F)(F)C(F)F)[nH]c1=O` [Compound 1368, N-Methyl-2-oxo-6-(1,1,2,2-tetrafluoroethyl)-1,2-dihydropyridine-3-carboxamide], the “safener action for the herbicide tembotrione” value in the test with corn [2] is “good safener action”. The “safener action in combination” value in the test on corn [1] is reported as “good safener action”.
In the case of `CCCC(C)NC(=O)c1ccc(C(F)F)[nH]c1=O` (stereo not drawn) [Compound 271], the “safener action in combination” value in the test on corn [1] was “good safener action”.
In the case of `CCC(C)NC(=O)c1ccc(C(F)(F)Cl)[nH]c1=O` (stereo not drawn) [Compound 155], in the test with corn [1], the “safener action in combination” value is recorded as “good safener action”. Also, the “safener action for the herbicide mesosulfuron-methyl” value in the test with barley is given as “good safener action”.
Turning to `CC(C)CNC(=O)c1ccc(C(F)(F)C(F)(F)C(F)(F)F)[nH]c1=O` [Compound 1625], the “safener action for the herbicide tembotrione” value in the test on corn [2] was “good safener action”. Further, the “safener action in combination” value in the test on corn [1] is given as “good safener action”.
Consider `CCC(CC)NC(=O)c1ccc(C(F)(F)C(F)(F)F)[nH]c1=O` [Compound 392], for which the “safener action in combination” value in the test with corn [1] is on record as “good safener action”. For the same compound, the “safener action for the herbicide mesosulfuron-methyl” value in the test with barley is “good safener action”.
For `C#CCNC(=O)c1ccc(C(F)(F)F)[nH]c1=O` [Compound 39], in the test on corn [1], the “safener action in combination” value is “good safener action”.
On to `CONC(=O)c1ccc(C(F)(F)Cl)[nH]c1=O` [Compound 194], for which the “safener action in combination” value with corn [1] was “good safener action”. The “safener action for the herbicide mesosulfuron-methyl” value in the test with barley was “good safener action”.
On to `CCONC(=O)c1ccc(C(F)(F)Cl)[nH]c1=O` [Compound 193], for which the “safener action in combination” value in the test with corn [1] was “good safener action”. Also, the “safener action for the herbicide mesosulfuron-methyl” value in the test with barley is on record as “good safener action”.
Consider `CCNC(=O)c1ccc(C(F)(F)F)[nH]c1=O` [Compound 2], for which the “safener action in combination” value in the test with corn [1] is “good safener action”. In addition, the “safener action for the herbicide mesosulfuron-methyl” value in the test with barley is listed as “good safener action”.
As for `CCNC(=O)c1ccc(C(F)(F)C(F)(F)C(F)(F)F)[nH]c1=O` [Compound 1597], the “safener action for the herbicide tembotrione” value in the test on corn [2] was “good safener action”. Also, in the test with corn [1], the “safener action in combination” value is “good safener action”.

(Values after patent US9102623B2, “Pyridinecarboxamides, useful-plant-protecting composition comprising them and processes for their preparation and their use” (Bayer Cropscience AG, priority 2007, dated 2015).)
